Results on 17 molecules are retold here after PubChem BioAssay (NCI).

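Each compound was tested at five concentrations against cells in 96-well plates for 48 hours. At the GI50, growth is halved. At the TGI there is no net growth.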

Holding throughout (experiment): growth of human tumour cells (NCI), 48 h
For assay [1], the system named is HCT-116 colon.
Assay [2] deals with LOX IMVI melanoma.
Assay [3] concerns M14 melanoma.
Assay [4] concerns MALME-3M melanoma.
In assay [5] the test system is MOLT-4 leukemia.
The test system of assay [6] is OVCAR-5 ovarian.
The subject of assay [7] is OVCAR-8 ovarian.
Assay [8] concerns CCRF-CEM leukemia.
The test system of assay [9] is HCT-15 colon.
In assay [10] the test system is NCI/ADR-RES ovarian.

On to `N#C[S-].[Ce+3].c1cnc2c(c1)ccc1cccnc12.c1cnc2c(c1)ccc1cccnc12.c1cnc2c(c1)ccc1cccnc12`, for which the TGI in assay [1] was 5.5 µM; in assay [2], 10.9 µM; in assay [3], 3.42 µM; in assay [4], 8.84 µM; in [5], greater than 100 µM; in assay [6], 16.1 µM. In [7], this molecule yielded a TGI of 17.5 µM.
Consider `COc1cc2c(cc1OC)-c1cc3ccc(OC)c(OC)c3c[n+]1CC2`, for which the TGI in assay [8], in assay [1], in [9], in assay [3], in assay [4] and in assay [5] was greater than 100 µM in each case. Besides, the TGI in assay [10], in assay [6] and in assay [7] was greater than 100 µM each time.
As for `O=C(NNC(=O)c1nsc2ccccc12)c1ccc(Cl)cc1`, the TGI was found to be 38.1 µM in assay [8]; 39.2 µM in [1]; 36.4 µM in assay [9]; 36.5 µM in [2]; 36.9 µM in assay [3]; 50.2 µM in assay [5]. For the same molecule, the TGI in assay [6] stood at 46.4 µM; in assay [7] it was 72.8 µM.
For the molecule `CCOC(=O)c1c(CN2CCCC2)n(-c2ccccc2)c2cc(Br)c(OC)cc12`, the TGI is 30.6 µM in assay [8]; 26.5 µM in [1]; 34.1 µM in assay [9]; 27.5 µM in assay [2]; 36.6 µM in [3]; 30.4 µM in [4]. For the same molecule, the TGI is 24.3 µM in assay [5], 80.8 µM in assay [10], 45.7 µM in assay [6] and greater than 100 µM in assay [7].
Take `CNC(=O)Nc1ccccc1`: the TGI in assay [8], in [1], in assay [9], in assay [2], in assay [3] and in assay [4] was greater than 100 µM in each case. The TGI in assay [5], in [10], in [6] and in assay [7] was greater than 100 µM each time.
For `C[N+](C)(CCO)CCN1c2ccccc2Sc2ccccc21`, the TGI in [8], in [1], in assay [9], in [2], in assay [3] and in [4] was greater than 10 µM throughout. The TGI in assay [5], in [10], in assay [6] and in [7] was greater than 10 µM throughout.
Take `O=C1C[C@H](CCC(=O)OCc2ccccc2)NC(=O)C[C@H](CCC(=O)OCc2ccccc2)NC(=O)C[C@H](CCC(=O)OCc2ccccc2)N1`: the TGI in assay [8], in assay [1], in assay [9], in assay [2], in assay [3] and in assay [4] was greater than 100 µM in each case. The TGI in assay [5], in assay [10], in [6] and in [7] was greater than 100 µM each time.
In the case of `Clc1ccc(-c2nnc(-c3c(Cl)c(Cl)c(Cl)c(Cl)c3-c3nc4ccccc4[nH]3)o2)cc1`, the TGI in assay [8], in [1], in assay [9], in assay [2], in assay [3] and in [4] was greater than 100 µM throughout. The TGI in assay [5], in [10], in assay [6] and in [7] was greater than 100 µM each time.
In the case of `COc1ccc(C)cc1Nc1nnc(-c2ccc(N)cc2)s1`, the TGI in [8], in [1], in assay [9], in [2], in assay [3] and in assay [4] was greater than 100 µM in each case. Also, the TGI in assay [5], in [10], in assay [6] and in assay [7] was greater than 100 µM throughout.
Take `O=c1/c(=C/c2ccc([N+](=O)[O-])o2)sc2n1[C@@H](c1ccc3c(c1)OCO3)C=C(c1cc(F)c(Cl)cc1Cl)N=2`: the TGI worked out at 10.5 µM in [8]; 28 µM in [1]; 64.9 µM in assay [9]; 42.9 µM in assay [2]; 31.8 µM in assay [3]; 40.5 µM in assay [4]. The TGI is greater than 100 µM in assay [5], greater than 100 µM in [10], 43.8 µM in assay [6] and 56.4 µM in assay [7].
Regarding `CC(=O)C1=C(O)CCC1=O`, the TGI in assay [8], in assay [1], in assay [2], in [3], in assay [4] and in assay [5] was greater than 100 µM throughout. The TGI in assay [10], in [6] and in [7] was greater than 100 µM in each case.
Turning to `Cn1c(=O)c2c(nc(NCCNc3nc4c(c(=O)n(C)c(=O)n4C)n3C)n2C)n(C)c1=O`, the TGI in assay [8], in [1], in [9], in assay [2], in [3] and in assay [4] was greater than 100 µM in each case. Also, the TGI in [5], in [10], in assay [6] and in assay [7] was greater than 100 µM in each case.
Turning to `NC(CC(=O)O)(Cc1ccccc1)C(=O)O` (stereo not drawn), the TGI in assay [8], in assay [1], in assay [9], in assay [2], in assay [3] and in [4] was greater than 100 µM each time. The TGI in assay [5], in assay [10], in assay [6] and in [7] was greater than 100 µM in each case.
Take `C[C@]12CCC(=O)C=C1CC[C@@H]1[C@@H]2[C@@H](O)C[C@@]2(C)[C@H]1CC[C@]2(O)C(=O)COC(=O)C1CCCC1`: the TGI in [8], in assay [1], in assay [9], in assay [2], in [3] and in assay [4] was greater than 100 µM throughout. Also, the TGI in [10], in [6] and in assay [7] was greater than 100 µM throughout.
`COc1ccc2nc3ccccc3c(NCc3ccc(C)cc3)c2c1`: the GI50 is 2.37 µM in assay [8]; 0.848 µM in assay [1]; 1.73 µM in assay [9]; 1.54 µM in assay [2]; 1.69 µM in assay [3]; 1.81 µM in assay [4]. The GI50 is 3.04 µM in assay [5], 1.79 µM in assay [10], 2.1 µM in assay [6] and 2.24 µM in assay [7]. Also, the TGI stood at 11.4 µM in [8]; 6.24 µM in [1]; 4.76 µM in assay [9]; 2.95 µM in assay [2]; 3.61 µM in assay [3]; 3.29 µM in [4]. Further, the TGI in [5] amounted to 11.5 µM; in assay [10], 4.98 µM; in assay [6], 6.02 µM; in assay [7], 7.27 µM.
With `Cc1ccc(SSCCCCCS(=O)O)cc1`, the TGI is greater than 100 µM in assay [8]; 28.4 µM in [1]; 30.9 µM in [2]; greater than 100 µM in assay [3]; greater than 100 µM in assay [4]; 40.3 µM in assay [5]. This molecule showed a TGI in assay [6] greater than 100 µM.
For `O=C(COc1ccc(Cl)cc1Cl)N/N=C/C=C/c1ccc([N+](=O)[O-])o1`, the TGI is 15.2 µM in assay [8]; greater than 100 µM in assay [9]; 38.9 µM in assay [2]; greater than 100 µM in assay [3]; 6.65 µM in assay [4]; 6.14 µM in assay [5]. The TGI is greater than 100 µM in assay [10], greater than 100 µM in assay [6] and 76.6 µM in assay [7].
